Results as given in patent publication US20070155012A1, “Method for production of neurons from cells of a cell line” (priority 2003, published 2007).

Tested on: NT2 cells
Test: Response of NT2 cells to growth factors: count of viable spherical cells after three days of culture
Assay type: cell-based, human
Conditions: growth factor present exclusively in growth medium NS; viable cells counted after three days of culture into spheres; FIG. 3
Method: This step permits to obtain the first passing over into spheres of NT2 cells that are then cultured, preferably at 100000 cells/ml in 75 ml flasks of the FALCON™ (trademark registered by the Falcon company) type having filtering plugs containing 15 ml of growth medium (NS) not containing bovine serum, defined by the following composition: DMEM/F12 (50%/50%), 2 mM glutamine, N2 complement, 0.6% glucose, 20 μg/ml insulin, to which are added extemporaneously growth factors EGF at 20 ng/ml, bFGF at 10 ng/ml, 2 μg/ml heparin or growth factor LIF at 10 ng/ml or 20 n/ml.
The way NT2 cells respond to growth factors […] and bFGF was studied by counting viable spherical cells obtained after three days of culture in the presence either of the one or the other, either of the one and the other of them then dissociated.
Results represented in FIG. 3 show the number of viable cells after three days, whereas the horizontal line indicates culture density.
Although it was found, unexpectedly, that NT2 cells were capable of forming spheres in the absence of growth factors, they proliferate differently under the action of the latter, and according to the type of growth factors added to the growth medium NS.

Row | Substance | rate of proliferation of NT2 cells multiplied by (with respect to cultures without growth factor)
1 | EGF: epidermal growth factor, added to growth medium at 20 ng/ml | 1.5
2 | bFGF: basic fibroblast growth factor, added to growth medium at 10 ng/ml | 2.2
